Measurements taken from paper PMC4466647, “Inhibition of non-small cell lung cancer (NSCLC) growth by a novel small molecular inhibitor of EGFR” (Oncotarget, 2015).

Molecular target: EGFR (Homo sapiens, UniProt P00533)
Assay: in vitro EGFR kinase assay (Promega Kinase-Glo luminescence, […] ATP)
Type: biochemical

Chain of EGFR (P00533 25-1210): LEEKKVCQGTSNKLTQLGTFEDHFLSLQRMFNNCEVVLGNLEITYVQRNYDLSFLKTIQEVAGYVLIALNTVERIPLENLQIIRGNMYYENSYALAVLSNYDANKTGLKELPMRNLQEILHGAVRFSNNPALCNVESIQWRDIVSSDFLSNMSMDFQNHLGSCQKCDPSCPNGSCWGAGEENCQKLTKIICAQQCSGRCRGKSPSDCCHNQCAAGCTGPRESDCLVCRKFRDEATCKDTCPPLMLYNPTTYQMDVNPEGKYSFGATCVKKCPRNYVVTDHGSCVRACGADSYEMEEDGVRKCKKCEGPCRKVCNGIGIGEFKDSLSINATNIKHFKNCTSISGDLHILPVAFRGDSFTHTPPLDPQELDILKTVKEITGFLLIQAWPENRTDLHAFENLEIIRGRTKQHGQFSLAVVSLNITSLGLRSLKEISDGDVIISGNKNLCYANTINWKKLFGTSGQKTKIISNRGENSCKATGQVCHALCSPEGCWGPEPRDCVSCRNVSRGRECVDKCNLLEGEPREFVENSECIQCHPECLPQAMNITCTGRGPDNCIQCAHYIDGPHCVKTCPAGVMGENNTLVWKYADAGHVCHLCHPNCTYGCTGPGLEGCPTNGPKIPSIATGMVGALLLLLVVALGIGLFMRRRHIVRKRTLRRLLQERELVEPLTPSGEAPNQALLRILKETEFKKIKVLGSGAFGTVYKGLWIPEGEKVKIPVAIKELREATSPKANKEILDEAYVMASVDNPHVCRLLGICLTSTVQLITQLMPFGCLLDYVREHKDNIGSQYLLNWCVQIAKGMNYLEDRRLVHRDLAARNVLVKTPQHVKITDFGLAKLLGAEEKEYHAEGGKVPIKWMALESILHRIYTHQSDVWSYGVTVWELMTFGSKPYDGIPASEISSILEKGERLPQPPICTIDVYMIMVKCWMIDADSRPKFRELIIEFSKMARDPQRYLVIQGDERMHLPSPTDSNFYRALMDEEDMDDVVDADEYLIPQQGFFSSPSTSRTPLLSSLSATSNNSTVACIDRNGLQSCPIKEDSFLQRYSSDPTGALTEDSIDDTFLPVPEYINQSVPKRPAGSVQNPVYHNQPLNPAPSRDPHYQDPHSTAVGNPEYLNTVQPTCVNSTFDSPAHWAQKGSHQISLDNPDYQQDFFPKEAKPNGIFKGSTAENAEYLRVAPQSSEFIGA

O=C(Cc1ccccc1)N1CCc2c([nH]c3ccc(F)cc23)C1 [compound 308, WB-308]
IC50: ~43 nM
